Reference: PubChem BioAssay (NCI)
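A five-concentration, 48-hour dose response in 96-well plates underlies each endpoint, interpolated linearly between surrounding concentrations. At the GI50, growth is halved. TGI is the concentration that stops growth completely.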

How the values were obtained:
Test in all cases: inhibition of tumour cell growth, NCI panel, 48 h
ACHN renal = test system: ACHN renal
HT29 colon = test system: HT29 colon
SF-268 CNS = test system: SF-268 CNS
NCI-H460 lung = test system: NCI-H460 lung
HL-60(TB) leukemia = test system: HL-60(TB) leukemia
LOX IMVI melanoma = test system: LOX IMVI melanoma
SK-MEL-5 melanoma = test system: SK-MEL-5 melanoma
SR leukemia = test system: SR leukemia
RXF 393 renal = test system: RXF 393 renal
OVCAR-4 ovarian = test system: OVCAR-4 ovarian

SMILES: NC(=O)c1nc(-c2ccc(Cl)c(Cl)c2)nc2ccccc12
- TGI (ACHN renal): > 100 µM
- TGI (HT29 colon): > 100 µM
- TGI (SF-268 CNS): > 100 µM
- TGI (NCI-H460 lung): > 100 µM
- TGI (HL-60(TB) leukemia): > 100 µM
- TGI (LOX IMVI melanoma): > 100 µM
- TGI (SK-MEL-5 melanoma): > 100 µM
- TGI (SR leukemia): > 100 µM
- TGI (RXF 393 renal): > 22.2 µM
- TGI (OVCAR-4 ovarian): > 100 µM

SMILES: O=S(=O)(Nc1ccc(Cl)c(Cl)c1)c1ccc(-c2cnc(C3CC3)o2)cc1
- GI50 (ACHN renal): 0.606 µM
- TGI (ACHN renal): 30.7 µM
- GI50 (HT29 colon): 0.403 µM
- TGI (HT29 colon): 16.8 µM
- GI50 (SF-268 CNS): 1.26 µM
- TGI (SF-268 CNS): 23.8 µM
- GI50 (NCI-H460 lung): 0.368 µM
- TGI (NCI-H460 lung): 11.6 µM
- GI50 (HL-60(TB) leukemia): 0.274 µM
- TGI (HL-60(TB) leukemia): 3.47 µM
- GI50 (LOX IMVI melanoma): 0.586 µM
- TGI (LOX IMVI melanoma): 19.3 µM
- GI50 (SK-MEL-5 melanoma): 0.478 µM
- TGI (SK-MEL-5 melanoma): 14.6 µM
- GI50 (SR leukemia): 0.122 µM
- TGI (SR leukemia): 62.6 µM
- GI50 (RXF 393 renal): 0.376 µM
- TGI (RXF 393 renal): 8.44 µM
- GI50 (OVCAR-4 ovarian): 1.16 µM
- TGI (OVCAR-4 ovarian): 20.6 µM

SMILES: O=C1/C(=C/c2ccc(O)cc2)Oc2ccccc21
- TGI (ACHN renal): > 100 µM
- TGI (HT29 colon): > 100 µM
- TGI (SF-268 CNS): > 100 µM
- TGI (NCI-H460 lung): > 100 µM
- TGI (HL-60(TB) leukemia): 92.9 µM
- TGI (LOX IMVI melanoma): > 100 µM
- TGI (SK-MEL-5 melanoma): > 100 µM
- TGI (SR leukemia): > 100 µM
- TGI (RXF 393 renal): > 100 µM
- TGI (OVCAR-4 ovarian): > 100 µM

SMILES: CCCCOP1(=O)CC(C)=C(Cl)C(C)(OC)C1 (stereo not given)
- TGI (ACHN renal): > 100 µM
- TGI (HT29 colon): > 100 µM
- TGI (SF-268 CNS): > 100 µM
- TGI (NCI-H460 lung): > 100 µM
- TGI (HL-60(TB) leukemia): 69 µM
- TGI (LOX IMVI melanoma): > 100 µM
- TGI (SK-MEL-5 melanoma): > 100 µM
- TGI (SR leukemia): 89.3 µM
- TGI (RXF 393 renal): > 100 µM
- TGI (OVCAR-4 ovarian): > 100 µM

SMILES: C[C@@H]1Cc2c(ccc3[nH]ncc23)[C@@H](c2ccc(NC3CN(CCCF)C3)cn2)N1CC(F)(F)F
- GI50 (ACHN renal): 22.2 µM
- TGI (ACHN renal): 53 µM
- GI50 (HT29 colon): 13.7 µM
- TGI (HT29 colon): 43.2 µM
- GI50 (SF-268 CNS): 22.3 µM
- TGI (SF-268 CNS): 79.4 µM
- GI50 (NCI-H460 lung): 18.8 µM
- TGI (NCI-H460 lung): 37.8 µM
- GI50 (HL-60(TB) leukemia): 15.7 µM
- TGI (HL-60(TB) leukemia): 43.4 µM
- GI50 (LOX IMVI melanoma): 16.1 µM
- TGI (LOX IMVI melanoma): 31.4 µM
- GI50 (SK-MEL-5 melanoma): 14.3 µM
- TGI (SK-MEL-5 melanoma): 28.2 µM
- GI50 (SR leukemia): 16.8 µM
- TGI (SR leukemia): 53.1 µM
- GI50 (RXF 393 renal): 6.8 µM
- TGI (RXF 393 renal): 22.9 µM
- GI50 (OVCAR-4 ovarian): 32.9 µM
- TGI (OVCAR-4 ovarian): > 100 µM
